How the values were obtained:
[1] = biological target: binary complex of TF/FVIIa (Homo sapiens, UniProt P00742); assay: lipidated TF assay (chromogenic assay measuring the FXa generated by TF/FVIIa); assay type: biochemical; settings: for IC50: FVIIa 5 pM, FX 20 nM, TF 5 pM, CaCl2 5 mM, 15 min preincubation at ambient temperature, FXa substrate S2765, read-out: IC50: concentration of peptide inhibiting the rate of FX activation by 50%; for IC values (statement in words): lipidated TF assay, summary of Table 1
Procedure: The inhibitory capacity of the peptides was measured by a so-called lipidated TF assay which is a chromogenic assay measuring the FXa generated by the binary complex of TF/FVIIa. FVIIa (5 pM final concentration) and FX (20 nM) were combined in the presence of different concentrations of peptide and incubated for 15 min at ambient temperature. TF (5 pM) and CaCl2 (5 mM) were added to initiate the reaction. Reactions were quenched with EDTA and the FXa activity was measured in an amidolytic assay, using the chromogenic FXa substrate S2765 (trade name). Data from these studies with this assay are shown in FIG. 1, and Table 1 hereinafter gives the corresponding IC values. Data are plotted as the percentage of the rate of FXa formation determined without peptide versus the concentration of the following peptides: hu#154-163 (SEQ. ID. NO. 1) (.circle-solid.), mu#158-167 (SEQ. ID. NO. 2) (x) and rb#152-161 (SEQ. ID. NO. 3) (Δ).

[2] = biological target: TF/FVIIa complex (FX activation) (Homo sapiens, UniProt P00742); assay: Dixon plot analysis of the inhibitory mechanism of FXa formation; assay type: biochemical; settings: Dixon plots; three FX concentrations or three TF concentrations in excess of FVIIa
Procedure: Different concentrations of peptide were mixed with FVIIa and three different concentrations of FX and, after addition of TF, the rate of FXa formation was determined. In another experiment, different concentrations of peptide were mixed with FVIIa and three different concentrations of TF, in excess of FVIIa. After addition of FX, the rate of FXa formation was determined. Results were plotted according to Dixon, the inverse of the rate of FXa formation versus peptide concentration. Peptide mu#158-167 (SEQ. ID. No. 2), produced linear regression lines, which intercepted on the abscissa (different FX concentrations) or above the abscissa (different TF concentrations).

Chain of binary complex of TF/FVIIa (P00742 41-179 limits assumed): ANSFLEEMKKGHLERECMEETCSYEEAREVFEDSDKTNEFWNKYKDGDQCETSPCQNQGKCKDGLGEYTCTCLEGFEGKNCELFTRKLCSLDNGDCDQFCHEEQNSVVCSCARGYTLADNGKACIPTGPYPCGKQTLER
Chain of binary complex of TF/FVIIa (P00742 235-488 limits assumed): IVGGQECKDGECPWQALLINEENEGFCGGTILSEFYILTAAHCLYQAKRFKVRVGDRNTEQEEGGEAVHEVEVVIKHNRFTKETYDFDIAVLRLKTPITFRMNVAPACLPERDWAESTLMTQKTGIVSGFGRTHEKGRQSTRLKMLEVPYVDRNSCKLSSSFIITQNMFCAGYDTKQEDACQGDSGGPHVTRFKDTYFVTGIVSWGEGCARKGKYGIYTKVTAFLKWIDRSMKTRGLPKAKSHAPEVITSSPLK
Chain of TF/FVIIa complex (FX activation) (P00742 41-179 limits assumed): as the sequence (P00742 41-179 limits assumed) above
Chain of TF/FVIIa complex (FX activation) (P00742 235-488 limits assumed): as the sequence (P00742 235-488 limits assumed) above

H--Thr--Leu--Tyr--Tyr--Trp--Arg--Ala--Ser--Ser--Thr--OH (H-TLYYWRASST-OH) [rb#152-161, 10-mer of rabbit TF residues 152-161]
IC50 [1]: 14 µM
IC values (statement in words) [1]: very low μm range

H-IITYRKGSST-OH [mu#158-167, H--Ile--Ile--Thr--Tyr--Arg--Lys--Gly--Ser--Ser--Thr--OH]
inhibitory mechanism of FXa formation [2]: competes with TF or FVIIa/TF complex for interaction with FX
IC50 [1]: 21 µM
IC values (statement in words) [1]: very low μm range

H-TLYYWKSSSS-OH [hu#154-163, H--Thr--Leu--Tyr--Tyr--Trp--Lys--Ser--Ser--Ser--Ser--OH]
IC50 [1]: 100 µM

Source: patent publication US5837684A, “Peptides” (Nycomed Imaging AS, priority 1995, dated 1998)
